In patent publication US8242152B2, “Use of 4-[(4-thiazolyl)phenoxy]alkoxy-benzamidine derivatives for the prophylaxis and treatment of osteoporosis” (Dong Wha Pharmaceutical Co., Ltd., priority 2001, dated 2012):

How the values were obtained:
[1] = system: osteoclast differentiation; experiment: Inhibitory effects on osteoclast differentiation, co-culture of bone marrow cells and osteoblast, TRAP staining (Example 1); format: cell-based, mice; conditions: 7-day co-culture; for inhibition at 0.0032 µM / inhibition at 0.016 µM / inhibition at 0.08 µM / inhibition at 0.4 µM / IC50: Mus musculus, Osteoclast, 168 h; for inhibition at 0.0032 µM / inhibition at 0.016 µM / inhibition at 0.08 µM / inhibition at 0.4 µM: read-out: % inhibitory action
Description: The effects of each test substance on osteoclast proliferation and differentiation process were evaluated via co-culture with osteoblast.
Tibia and Femora were aseptically ectomized from male ddY mice of 6-8 weeks to harvest bone marrow cells by using a syringe (21 G, Korea Green Cross).
The bone marrow cells were suspended in 5 mL α-MEM medium (Gibco BRL Co.) containing sodium bicarbonate (2.0 g/L), streptomycin (100 mg/L) and penicillin ([…]). The harvested cells were centrifuged at 800×g for 5 minutes to collect the whole quantity. To remove the red blood cells within bone marrow cells, 3 mL of Tris HCl (0.83% NH4Cl, pH7.5) was added and well mixed. After centrifuging the above cells, the numbers of bone marrow cells were counted and then the bone marrow cells were immediately used for a co-culture system with osteoblast.
The calvaria were aseptically ectomized from neonate ICR mice of 1-2 days, washed with PBS solution and incubated with a mixture of enzyme solutions (0.2% collagenase and 0.1% dispase) at 37° C. gentle shaker. This procedure was sequentially repeated (10, 10, 10, 20, 20 and 20 minutes), and then the calvaria cells having the characteristics of osteoblast, were mostly released from III˜VI digestion groups, were collected and washed with the medium (serum-free α-MEM). The washed cells were cultivated in α-MEM medium containing 10% FBS for 2-3 days. After subculturing, these cells were used for this experiment, and diluted to reach the concentration of 1×10^6 cells/mL for storage at −70° C.
The volume of final specimen added to the medium was determined at the ratio of 1:1000.
Bone marrow cells, so prepared from the above No. 1, and osteoblast from calvaria were co-cultured for osteoclast differentiation. Both bone marrow cells (25,000 cells/cm^2) and osteoblast (10,000 cells/cm^2) were plated on a 96 well plate in α-MEM medium containing 10% FBS with the specimen, and then the reaction mixture was cultured for 7 days. Some differentiation factors, such as dexamethasone (10^−6M) and vitamin D3(10^−9M), were also continuously added to the medium from the first day of cultivation. The media were changed with fresh media containing a mixture of specimens and differentiation factors every 2-3 day.
TRAP was used as a marker to measure osteoclast in consideration of its characteristics showing a positive reaction to TRAP staining solution. TRAP staining solution was prepared in a manner such that 5 mg of naphtol AS-MS phosphate (sigma N-4875), a substrate and 25 mg of coloring agent (Fast Red Violet LB salt) were dissolved in N,N-dimethylformamide (about 0.5 mL) and with the addition of 0.1N NaHCO3 buffer solution (50 mL) containing 50 mM of tartaric acid. The reaction mixture was stored in a refrigerator prior to use.
After a 7-day culture, the medium was removed from the wells and then the cells were washed once with PBS solution and fixed to PBS containing 10% formalin for 2-5 minutes. The cells were also fixed in a mixed solution, ethanol and acetone (1/1), for about 1 minute, and dried off. The cells were further treated by TRAP staining solution for 15 minutes and washed with PBS to measure the experimental results with the staining degree of cells under a microscopic examination.
The counts of osteoclast only with more than 3 nuclei showing the TRAP-positive reaction were calculated under a microscopic examination, and each test was reconfirmed over three times to insure more reliable data.
As shown in the following table 1, the inhibitory effect of each experimental group on the differentiation of osteoclast versus controls were expressed by inhibitory percentage value, and 50% inhibitory concentration on osteoclast differentiation was calculated as IC50.

LTB4 receptor = LTB4 receptor (Homo sapiens, UniProt Q15722); experiment: LTB4 receptor binding assay on human neutrophils ([3H]-LTB4); parameters: endogenous in cells; host or cells: human neutrophils (PMN) purified from fresh blood; conditions: 100 nM; versus DW1350
Chain of LTB4 receptor (Q15722 whole entry): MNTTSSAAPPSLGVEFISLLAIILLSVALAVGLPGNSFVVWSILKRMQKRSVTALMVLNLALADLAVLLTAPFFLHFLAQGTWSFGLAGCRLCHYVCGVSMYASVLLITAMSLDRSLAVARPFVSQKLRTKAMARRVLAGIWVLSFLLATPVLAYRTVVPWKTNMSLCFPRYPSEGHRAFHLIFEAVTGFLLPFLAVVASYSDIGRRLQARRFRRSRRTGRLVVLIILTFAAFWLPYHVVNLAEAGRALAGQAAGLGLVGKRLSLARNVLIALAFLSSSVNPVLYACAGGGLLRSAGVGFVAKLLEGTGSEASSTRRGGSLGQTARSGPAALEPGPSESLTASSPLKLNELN
Description: Neutrophils (PMN) were purified from freshly drawn human blood by standard techniques or dextran T-500 sedimentation and centrifugation on Ficoll/Paquc (pharmacia) followed by hypotonic lysis of crythrocyte. The purified PMN were resuspended to a final concentration of 3×10^7 cells/ml in HESS (Hank's balanced salt solution, Gibco).
The assay was performed following the method described elsewhere (Brown. A. R.; Grccnham, N. C.; Burroughes, J. H.: Bradely, D. C. C.; Friend. R. H.; Burn, P. L.; Kraft. A.: Holmes, A. B.; Chem. Phys, Lett. 1992, 200, 1246). LTB4 receptor binding assay was performed in 12×75 mm polypropylene tubes containing 0.5 nM of [^3H]-LTB4 (200 Ci/mmol), competitive compound, and cells suspended in HBSS (3×10^6 cells) (final volume: 200 ul). The tubes were incubated on ice for 45 minutes. Free and PMN bound [^3H]-LTB4 were separated by filtration through Whatman GF/C filters. The filters were then washed three times with 5 ml of ice cold Tris buffer (pH 7.4). […] The radioactivity was measured by liquid scintillation spectrometry. The specific binding was determined as the count difference total binding and binding in the presence of 1000-fold excess of unlabeled LTB4 (Scontrol). The LTB4 binding activity was calculated from the percent inhibition of specific [^3H]-LTB4 binding at various concentrations (Ssample). […]

Row | Compound | times the inhibition of LTB4 receptor binding of DW1350 (LTB4 receptor) | inhibition at 0.0032 µM ([1]; 3.2 nM) | inhibition at 0.016 µM ([1]; 16 nM) | inhibition at 0.08 µM ([1]; 80 nM) | inhibition at 0.4 µM ([1]; 400 nM) | IC50 [1] | further results
1 | 4-[5-[4-(aminoiminomethyl)phenoxy]pentoxy]-3-methoxy-N,N-bis(1-methylethyl)benzamide maleic acid [CGS-25019C] |  |  |  |  |  |  | % inhibitory action ([1]; 3.2 nM): −8.9%; % inhibitory action ([1]; 16 nM): 8.3%; % inhibitory action ([1]; 80 nM): 0.0%; % inhibitory action ([1]; 400 nM): 17.7%
2 | Cc1nc(-c2ccc(OCCCCOc3ccc(C(=N)NO)cc3)cc2)c(C(C)C)s1 [DW1349, N— hydroxy-4-{4-[4-(5-isopropyl-2-methyl-1,3-thiazol-4-yl)phenoxy]butoxy}-benzamidine] | more than three times |  |  |  |  |  | 
3 | Cc1nc(-c2ccc(OCCCCCOc3ccc(C(=N)NO)cc3)cc2)c(C(C)C)s1 [DW1350, N-hydroxy-4-{5-[4-(5-isopropyl-2-methyl-1,3-thiazol-4-yl)phenoxy]pentoxy}-benzamidine] |  | 1% | 68.8% | 82.3% | 88% | 19.9 nM | 
4 | Cc1nc(-c2ccc(OCCCCOc3ccc(C(=N)N)cc3)cc2)c(C(C)C)s1 [DW1351, 4-{4-[4-(5-isopropyl-2-methyl-1,3-thiazol-4-yl)phenoxy]butoxy}-benzamidine] | more than eight times |  |  |  |  |  | 
5 | Cc1nc(-c2ccc(OCCCCCOc3ccc(C(=N)N)cc3)cc2)c(C(C)C)s1 [DW1352, 4-{5-[4-(5-isopropyl-2-methyl-1,3-thiazol-4-yl)phenoxy]pentoxy}-benzamidine] |  | 50% | 81.8% | 83.9% | 92.7% | 1.25 nM | 
6 | COc1cc(C(=O)N(C(C)C)C(C)C)ccc1OCCCCOc1ccc2c(N)noc2c1 [HS1141, N,N-diisopropyl-4-[4-(3-aminobenzo[d]isooxazole-6-yloxy)butoxy]-3-methoxybenzamide] |  | 1.2% | 3% | 12% | 23.5% |  | 
